Laboratory results: PMC6478669, “Engineered Orthogonal Quorum Sensing Systems for Synthetic Gene Regulation in Escherichia coli” (Frontiers in Bioengineering and Biotechnology, 2019)

Tests used:
Test in all cases: GFP reporter induction, plate reader
Format in all cases: cell-based
AubR = molecular target: T1, AubR (uncultured bacterium, UniProt K0J3R4); settings: read-out: Kmapprox
T1 construct: constitutively expressed from Receiver plasmid (pSB1A3) in E. coli BL21 with hybrid pAub promoter-GFP reporter; acts as dimer

LuxR [1] = molecular target: T2, LuxR (Aliivibrio fischeri, UniProt P12746); settings: E. coli BL21 Receiver cells, LB, 37 °C, half-maximal max rate of GFP/OD600
T2 construct: Receiver plasmid in E. coli BL21, regulator cassette upstream of pLux-GFP; same synthetic system as Canton et al. 2008; acts as dimer
T2 sequence (P12746 1-250): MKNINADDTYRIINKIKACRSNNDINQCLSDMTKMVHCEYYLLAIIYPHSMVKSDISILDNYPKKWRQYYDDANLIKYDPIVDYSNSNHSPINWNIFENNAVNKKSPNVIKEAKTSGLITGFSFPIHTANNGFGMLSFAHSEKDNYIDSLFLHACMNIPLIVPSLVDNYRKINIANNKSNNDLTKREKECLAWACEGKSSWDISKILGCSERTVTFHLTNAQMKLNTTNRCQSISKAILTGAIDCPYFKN

LuxR [2] = molecular target: T2, LuxR; settings: E. coli BL21 Receiver cells, LB, 37 °C, half-maximal max rate of GFP/OD600; unreliable (little to no response without oxo group)
LasR = molecular target: T3, LasR (Pseudomonas aeruginosa, UniProt P25084); settings: E. coli BL21 Receiver cells, LB, 37 °C, half-maximal max rate of GFP/OD600
T3 construct: constitutively expressed from Receiver plasmid (pSB1A3) in E. coli BL21 with hybrid pLas promoter-GFP reporter; acts as dimer
T3 sequence (P25084 whole entry): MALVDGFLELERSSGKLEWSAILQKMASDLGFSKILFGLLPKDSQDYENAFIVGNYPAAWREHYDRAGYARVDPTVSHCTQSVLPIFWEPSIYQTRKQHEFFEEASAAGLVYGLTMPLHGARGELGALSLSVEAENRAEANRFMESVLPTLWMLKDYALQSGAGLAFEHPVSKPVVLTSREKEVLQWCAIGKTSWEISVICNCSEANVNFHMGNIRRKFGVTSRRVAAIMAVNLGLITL

T1 sequence (K0J3R4 1-267): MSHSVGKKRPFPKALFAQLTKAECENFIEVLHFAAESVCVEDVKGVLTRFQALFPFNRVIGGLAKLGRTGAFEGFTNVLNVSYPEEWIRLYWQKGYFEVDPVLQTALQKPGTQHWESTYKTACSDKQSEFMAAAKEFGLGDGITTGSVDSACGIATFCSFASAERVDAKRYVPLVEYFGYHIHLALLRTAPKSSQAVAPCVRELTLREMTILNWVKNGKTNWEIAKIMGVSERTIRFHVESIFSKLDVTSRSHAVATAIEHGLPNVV

| Structure (SMILES) | EC50 (AubR) [nM] | Kmapprox (LuxR [1]) | other results |
| --- | --- | --- | --- |
| CCCCCCCCCC(=O)CC(=O)N[C@H]1CCOC1=O [3-oxo-C12 HSL] | 100 |  |  |
| CCCCCC(=O)CC(=O)N[C@H]1CCOC1=O [3-oxo-C8] |  | ~ between 1.00E-7 and 1.00E-8 M |  |
| CCCCCCCCCCCC(=O)N[C@H]1CCOC1=O [C12 HSL] | 5 |  |  |
| CCCC(=O)N[C@H]1CCOC1=O [C4-HSL] |  |  | Kmapprox (LuxR [2]): ~ 1.0E-6–1.0E-5 M |
| CCCCCCCCCCCC(=O)CC(=O)N[C@H]1CCOC1=O [3-oxo-C14 HSL] |  | ~ between 1.00E-8 and 1.00E-7 M | Kmapprox (LasR): ~ between 1.00E-9 and 1.00E-8 M |
